Measurements published in ChEMBL document CHEMBL3352627, “Brocazines A-F, Cytotoxic Bisthiodiketopiperazine Derivatives from Penicillium brocae MA-231, an Endophytic Fungus Derived from the Marine Mangrove Plant Avicennia marina” (J Nat Prod, 2014).

Columns and labels:
Format in all cases: functional, cell-based
HeLa = assay: Cytotoxicity against human HeLa cells assessed as reduction in cell viability
DU-145 = assay: Cytotoxicity against human DU145 cells assessed as reduction in cell viability
[1] = Cytotoxicity against human SGC7901 cells assessed as reduction in cell viability; conditions: SGC-7901
U-251 = assay: Cytotoxicity against human U251 cells assessed as reduction in cell viability
SW480 = assay: Cytotoxicity against human SW480 cells assessed as reduction in cell viability
MCF7 = assay: Cytotoxicity against human MCF7 cells assessed as reduction in cell viability
SW1990 = assay: Cytotoxicity against human SW1990 cells assessed as reduction in cell viability
HepG2 = assay: Cytotoxicity against human HepG2 cells assessed as reduction in cell viability
NCI-H460 = assay: cells; conditions: Homo sapiens
Description: Cytotoxicity against human NCI-H460 cells assessed as reduction in cell viability

## CO[C@H]1CC(=O)[C@@H]2C[C@@]34SS[C@]5(C[C@@H]6C(=O)C=C[C@H](O)[C@H]6N5C3=O)C(=O)N4[C@@H]2[C@H]1O
HeLa
  IC50: 6.8 µM
DU-145
  IC50: 4.2 µM
[1]
  IC50: 2.6 µM
U-251
  IC50: 5.2 µM
SW480
  IC50: 2000 nM
MCF7
  IC50: 5.5 µM
SW1990
  IC50: 6 µM
HepG2
  IC50: 6.4 µM
NCI-H460
  IC50: 4.9 µM

## O=C1C=C[C@H](O)[C@@H]2[C@@H]1C[C@@]13SS[C@]4(C[C@H]5C(=O)CC[C@H](O)[C@H]5N4C1=O)C(=O)N23
HeLa
  IC50: 5.3 µM
DU-145
  IC50: 3.6 µM
[1]
  IC50: 2.4 µM
U-251
  IC50: 3.5 µM
SW480
  IC50: 1200 nM
MCF7
  IC50: 6.1 µM
SW1990
  IC50: 6.4 µM
HepG2
  IC50: 5.5 µM
NCI-H460
  IC50: 4 µM

## O=C1C[C@H](O)[C@H](O)[C@@H]2[C@H]1C[C@@]13SS[C@]4(C[C@H]5[C@@H]([C@@H](O)C=C[C@@H]5O)N4C1=O)C(=O)N23
HeLa
  IC50: > 20 µM
DU-145
  IC50: > 20 µM
[1]
  IC50: > 20 µM
U-251
  IC50: > 20 µM
SW480
  IC50: > 20000 nM
MCF7
  IC50: > 20 µM
SW1990
  IC50: > 20 µM
HepG2
  IC50: > 20 µM
NCI-H460
  IC50: > 20 µM

## CO[C@H]1CC(=O)[C@@H]2C[C@@]34SS[C@]5(C[C@H]6C(=O)C[C@H](O)[C@H](O)[C@H]6N5C3=O)C(=O)N4[C@@H]2[C@H]1O
HeLa
  IC50: > 20 µM
DU-145
  IC50: > 20 µM
[1]
  IC50: > 20 µM
U-251
  IC50: > 20 µM
SW480
  IC50: > 20000 nM
MCF7
  IC50: > 20 µM
SW1990
  IC50: > 20 µM
HepG2
  IC50: > 20 µM
NCI-H460
  IC50: > 20 µM

## O=C1N2[C@H]3[C@H](C[C@]24SS[C@]12C[C@H]1[C@@H]([C@@H](O)C=C[C@@H]1O)N2C4=O)[C@@H](O)C=C[C@@H]3O
HeLa
  IC50: 4.3 µM
DU-145
  IC50: 11.2 µM
[1]
  IC50: 3.3 µM
U-251
  IC50: 6.1 µM
MCF7
  IC50: 9 µM
SW1990
  IC50: 2.1 µM
HepG2
  IC50: 5.6 µM
NCI-H460
  IC50: 12.4 µM

## O=C1C=C[C@H](O)[C@@H]2[C@@H]1C[C@@]13SS[C@]4(C[C@H]5[C@@H]([C@@H](O)C=C[C@@H]5O)N4C1=O)C(=O)N23
HeLa
  IC50: 6.9 µM
DU-145
  IC50: 1.7 µM
[1]
  IC50: 8 µM
U-251
  IC50: 5.3 µM
MCF7
  IC50: 3 µM
SW1990
  IC50: 5.9 µM
HepG2
  IC50: 2.9 µM
NCI-H460
  IC50: 0.89 µM

## COc1cccc2c1C(=O)c1c(O)c3c(c(O)c1C2=O)C[C@@](O)(C(=O)CO)C[C@@H]3O[C@H]1C[C@H](N)[C@H](O)[C@H](C)O1 [DOXORUBICIN]
[1]
  IC50: 2.9 µM

## Nc1ccn([C@@H]2O[C@H](CO)[C@@H](O)C2(F)F)c(=O)n1 [GEMCITABINE]
SW1990
  IC50: 2.2 µM

## CC(=O)O[C@H]1C(=O)[C@@]2(C)[C@H]([C@H](OC(=O)c3ccccc3)[C@]3(O)C[C@H](OC(=O)[C@H](O)[C@@H](NC(=O)c4ccccc4)c4ccccc4)C(C)=C1C3(C)C)[C@]1(OC(C)=O)CO[C@@H]1C[C@@H]2O [PACLITAXEL]
HeLa
  IC50: 5 µM
DU-145
  IC50: 1.5 µM
MCF7
  IC50: 1.8 µM
